Measured values reported in patent publication US20080226719A1, “Combination of Rosiglitazone and Donepezil for Improvement of Cognitive Function” (priority 2005, published 2008).

What was measured:
[1] = test system: Alzheimer's patients; assay: ADAS-cog in patients with mild to moderate AD, 24 week placebo-controlled study (Example 2); type: in vivo, human; conditions: for ADAS-cog Treatment Difference (95% confidence limits) Rosi − Placebo / ADAS-cog model adjusted change from baseline, LSMean (SE): ITT population, LOCF; for ADAS-cog Treatment Difference (95% confidence limits) Rosi − Placebo / ADAS-cog model adjusted change from baseline, LSMean (SE) / ADAS-cog Treatment Difference (90% confidence limits) Rosi − Placebo / ADAS-cog model-adjusted change from baseline, LSMean (SE): 24 weeks; for ADAS-cog Treatment Difference (90% confidence limits) Rosi − Placebo / ADAS-cog model-adjusted change from baseline, LSMean (SE): PGx ITT population
Description: (§1) Analysis for the full intent to treat (ITT) population was performed on 511 subjects who were randomly allocated into one of four specific treatment regimes. Genotyping analysis was performed on 63% (323/511) of the ITT population.
(§2) Patient population included Caucasian males and females between 50-85 years of age who had been diagnosed with mild to moderate AD, were not receiving any medications which could adversely prejudice the study (e.g. PPAR-gamma agonists or conventional AD medicaments) or had any other potentially prejudicial ailments (e.g. diabetes or major psychiatric disorders).
(§3) Patients received either placebo or one of three dosage levels of extended release rosiglitazone provided once daily (2 mg, 4 mg and 8 mg tablets as described in Example 1). Patients were examined using the cognitive Alzheimer's Disease Assessment Scale (ADAS-cog; for further information see Rosen W G et al. Am. J. Psychiatry. 1984 141:1356-1364) and the Clinician's Interview-Based Impression of Change with caregiver information (CIBIC+; for further information see Knopman D S et al. Neurology 1994 44: 2315-2321); and secondary assessments were performed using: the Disability Assessment for Dementia (DAD, for further information see Gelinas L et al. Am J Occup Ther 1999 53: 471-81) and the Neuropsychiatric Inventory test (NPI, for further information see Cummings et al (1994) Neurology 44, 2308-2314) at the start of the study (baseline) and during the course of the study (after 8, 16 and 24 weeks of treatment).
(§4) APOE genotype was determined using the TaqMan PCR-based method of McLeod et al 2001 infra.
(§5) All statistics reflect last observed assessment carried forward (LOCF) measurements.
It should be noted that in the case of ADAS-cog higher scores indicate reduced cognitive function.

[2] = test system: Alzheimer's patients; assay: CIBIC+ in patients with mild to moderate AD, 24 week placebo-controlled study (Example 2); type: in vivo, human; conditions: 24 weeks; for CIBIC+ LSMean (SE) / CIBIC+ Treatment Difference (95% confidence limits) Rosi − Placebo: ITT population, LOCF
Description: as §1, §2, §3, §4, §5
Higher CIBIC+ scores indicate a greater level of decline with scores below 4 denoting clinical improvement and scores above 4 denoting clinical decline.

CN(CCOc1ccc(CC2SC(=O)NC2=O)cc1)c1ccccn1 (stereo not drawn) [Rosi, 5-[4-[2-(N-methyl-N-(2-pyridyl)amino)ethoxy]benzyl]thiazolidine-2,4-dione]
ADAS-cog change from baseline, cognitive function (FIG. 2) ([1]; APOE4+ individuals, 2 mg, 4 mg or 8 mg, after 8 weeks): slight improvement
ADAS-cog change from baseline, cognitive function (FIG. 2) ([1]; APOE4+ individuals, 2 mg, after 16 weeks): a greater decline than the placebo
ADAS-cog change from baseline, cognitive function (FIG. 2) ([1]; APOE4+ individuals, 4 mg and 8 mg, after 16 weeks, versus placebo): the same or better clinical status
ADAS-cog change from baseline, cognitive function (FIG. 2) ([1]; APOE4+ individuals, all three treatment arms, after 24 weeks): finish with a clinical decline
ADAS-cog change from baseline (FIG. 3) ([1]; APOE4 heterozygotes, higher doses (4, 8 mg), course of the study): remained close to the baseline
ADAS-cog change from baseline (FIG. 3) ([1]; APOE4 homozygotes, all treated): experienced a clinical decline
ADAS-cog change from baseline, cognitive function (FIG. 2) ([1]; APOE4− individuals, 2 mg, 4 mg or 8 mg, all time points (8, 16 and 24 weeks)): marked improvement
ADAS-cog Treatment Difference (95% confidence limits) Rosi − Placebo ([1]; 2 mg): 0.25 (−1.19, 1.68)
ADAS-cog model adjusted change from baseline, LSMean (SE) ([1]; 2 mg once daily extended release): −0.2 (0.54)
ADAS-cog Treatment Difference (95% confidence limits) Rosi − Placebo ([1]; 4 mg): −0.46 (−1.90, 0.97)
ADAS-cog model adjusted change from baseline, LSMean (SE) ([1]; 4 mg once daily extended release): −0.9 (0.54)
ADAS-cog Treatment Difference (95% confidence limits) Rosi − Placebo ([1]; 8 mg): −0.27 (−1.70, 1.16)
ADAS-cog model adjusted change from baseline, LSMean (SE) ([1]; 8 mg once daily extended release): −0.7 (0.53)
ADAS-cog Treatment Difference (90% confidence limits) Rosi − Placebo ([1]; 0 APOE4 copies, 2 mg): −2.39 (−4.43, −0.36)
ADAS-cog model-adjusted change from baseline, LSMean (SE) ([1]; 0 APOE4 copies, 2 mg): −1.38 (0.90)
ADAS-cog Treatment Difference (90% confidence limits) Rosi − Placebo ([1]; 0 APOE4 copies, 4 mg): −2.26 (−4.32, −0.20)
ADAS-cog model-adjusted change from baseline, LSMean (SE) ([1]; 0 APOE4 copies, 4 mg): −1.25 (0.90)
ADAS-cog Treatment Difference (90% confidence limits) Rosi − Placebo ([1]; 0 APOE4 copies, 8 mg): −2.86 (−4.98, −0.74)
ADAS-cog model-adjusted change from baseline, LSMean (SE) ([1]; 0 APOE4 copies, 8 mg): −1.85 (0.94)
ADAS-cog Treatment Difference (90% confidence limits) Rosi − Placebo ([1]; 0 APOE4 copies, 8 mg, listed as rosiglitazone): −2.86
ADAS-cog Treatment Difference (90% confidence limits) Rosi − Placebo ([1]; 1 APOE4 copy, 2 mg): 2.59 (0.10, 5.08)
ADAS-cog model-adjusted change from baseline, LSMean (SE) ([1]; 1 APOE4 copy, 2 mg): 2.02 (1.10)
ADAS-cog Treatment Difference (90% confidence limits) Rosi − Placebo ([1]; 1 APOE4 copy, 4 mg): 0.36 (−2.18, 2.90)
ADAS-cog model-adjusted change from baseline, LSMean (SE) ([1]; 1 APOE4 copy, 4 mg): −0.21 (1.15)
ADAS-cog Treatment Difference (90% confidence limits) Rosi − Placebo ([1]; 1 APOE4 copy, 8 mg): 0.23 (−2.42, 2.87)
ADAS-cog model-adjusted change from baseline, LSMean (SE) ([1]; 1 APOE4 copy, 8 mg): −0.34 (1.25)
ADAS-cog Treatment Difference (90% confidence limits) Rosi − Placebo ([1]; 2 APOE4 copies, 2 mg): 10.26 (3.64, 16.87)
ADAS-cog model-adjusted change from baseline, LSMean (SE) ([1]; 2 APOE4 copies, 2 mg): 5.67 (2.98)
ADAS-cog Treatment Difference (90% confidence limits) Rosi − Placebo ([1]; 2 APOE4 copies, 4 mg): 7.75 (1.79, 13.71)
ADAS-cog model-adjusted change from baseline, LSMean (SE) ([1]; 2 APOE4 copies, 4 mg): 3.16 (2.44)
ADAS-cog Treatment Difference (90% confidence limits) Rosi − Placebo ([1]; 2 APOE4 copies, 8 mg): 6.50 (1.28, 11.71)
ADAS-cog model-adjusted change from baseline, LSMean (SE) ([1]; 2 APOE4 copies, 8 mg): 1.91 (1.73)
CIBIC+ LSMean (SE) ([2]; 2 mg): 3.8 (0.10)
CIBIC+ Treatment Difference (95% confidence limits) Rosi − Placebo ([2]; 2 mg): −0.16 (−0.44, 0.11)
CIBIC+ LSMean (SE) ([2]; 4 mg): 3.8 (0.10)
CIBIC+ Treatment Difference (95% confidence limits) Rosi − Placebo ([2]; 4 mg): −0.16 (−0.43, 0.11)
CIBIC+ LSMean (SE) ([2]; 8 mg): 3.8 (0.10)
CIBIC+ Treatment Difference (95% confidence limits) Rosi − Placebo ([2]; 8 mg): −0.22 (−0.49, 0.05)
CIBIC+ Treatment Difference (90% confidence limits) Rosi − Placebo ([2]; Table 13, PGx ITT population, 0 APOE4 copies, 2 mg): −0.49 (−0.89, −0.08)
